Experiments:
male subjects = test: Open label study: 300 mg a-trione bid for three weeks, endocrine markers in resting AM blood draws; assay type: in vivo, human; set-up: Free Testosterone: unit not given here; settings: for Total Testosterone: 300 mg bid oral, six male subjects, Week 0 baseline 443.67; for Estradiol / Sex Hormone Binding Globulin (SHBG) / Dihydrotestosterone / Free Testosterone / T/E Ratio: 300 mg bid; for Estradiol: Week 0 baseline 16.5; for Sex Hormone Binding Globulin (SHBG): Week 0 baseline 21.83; for Dihydrotestosterone: Week 0 baseline 33.33; for Free Testosterone: Week 0 baseline 126.67; for T/E Ratio: Week 0 baseline 269/1
Protocol: Six male subjects, aged 32-40 years of age, were prescreened via a medical doctor for endocrinological abnormalities. The subjects' physical characteristics were: height 177.38+/−[…] cm, weight 88.8+/−13.65 kg, body fat percentage 14.9+/−3.5%. Subjects ingested 300 mg a-trione bid for three weeks as part of an open label design. Resting AM blood draws were taken at 0, 1, 2, and 3 weeks of supplementation. Table 1 indicates the changes in endocrine markers over the time evaluated. Results were analyzed using a Repeated Measures-ANOVA design with paired samples t-tests as appropriate. […] Therefore, a-trione can raise the T/E ratio while leaving estradiol in the safe physiological range.

aromatase enzyme = target: T1, aromatase enzyme (Homo sapiens, UniProt P11511); settings: in-vitro; cited from earlier work
T1 sequence (P11511 1-503): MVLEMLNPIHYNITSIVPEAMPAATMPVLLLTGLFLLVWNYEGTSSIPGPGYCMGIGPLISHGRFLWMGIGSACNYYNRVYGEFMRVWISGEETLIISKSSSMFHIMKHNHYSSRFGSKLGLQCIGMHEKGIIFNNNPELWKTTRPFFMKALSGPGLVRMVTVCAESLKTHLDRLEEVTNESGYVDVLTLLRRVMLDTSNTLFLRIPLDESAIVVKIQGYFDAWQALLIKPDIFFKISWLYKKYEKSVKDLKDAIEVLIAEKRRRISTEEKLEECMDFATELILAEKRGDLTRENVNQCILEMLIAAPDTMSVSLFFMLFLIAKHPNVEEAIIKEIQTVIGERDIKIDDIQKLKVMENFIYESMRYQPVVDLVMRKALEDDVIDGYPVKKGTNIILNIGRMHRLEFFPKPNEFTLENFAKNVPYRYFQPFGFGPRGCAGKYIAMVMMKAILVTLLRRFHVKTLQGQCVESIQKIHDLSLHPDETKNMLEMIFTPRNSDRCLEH

[1] = 300 mg bid for three weeks, change over the time evaluated

## C[C@]12CCC(=O)C=C1C(=O)C[C@@H]1[C@@H]2CC[C@]2(C)C(=O)CC[C@@H]12 [a-trione, 4-androstene-3,6,17-trione]
Male subjects; [1]
  change in estrogen: −11%
  increase in testosterone levels: +88%
Male subjects; Week 1
  Total Testosterone: 701.17 ng/dL
  Estradiol: 16.5 pg/mL
  Sex Hormone Binding Globulin (SHBG): 20.5 nmol/L
  Dihydrotestosterone: 39.83 ng/dL
  Free Testosterone: 216.67
  T/E Ratio: 425/1
Male subjects; Week 2
  Total Testosterone: 752.17 ng/dL
  Estradiol: 14.8 pg/mL
  Sex Hormone Binding Globulin (SHBG): 19.5 nmol/L
  Dihydrotestosterone: 45.83 ng/dL
  Free Testosterone: 252.33
  T/E Ratio: 508/1
Male subjects; Week 3
  Total Testosterone: 835.33 ng/dL
  Estradiol: 14.67 pg/mL
  Sex Hormone Binding Globulin (SHBG): 18.83 nmol/L
  Dihydrotestosterone: 47.5 ng/dL
  Free Testosterone: 285.67
  T/E Ratio: 569/1
Male subjects; male endocrinological profile
  effect on estradiol (in words): small, barely significant decrease in estradiol
  effect on testosterone (in words): very marked increase of testosterone
Aromatase enzyme
  aromatase inhibiting activity: has been shown to have aromatase inhibiting activity in-vitro
